Measured values published in patent US8835422B2, “Substituted imidazoheterocycle derivatives” (Cara Therapeutics, Inc., priority 2008, dated 2014).

How the values were obtained:
[1] = system: CFA-induced thermal hyperalgesia; assay: CFA model of acute inflammation: thermal hyperalgesia (paw withdrawal latency); assay type: in vivo, Male Sprague-Dawley rats; details: for Attenuation (sec.) of CFA-induced thermal hyperalgesia (mean PWL ± SEM): p.o., vehicle 4.3 ± 0.2, naive 10.3 ± 0.3
Description: The anti-hyperalgesic effects of test compounds in the Complete Freund's Adjuvant (CFA) model of inflammatory pain were examined as described below. Male Sprague-Dawley rats (Hsd:Sprague-Dawley®™SD®™, Harlan, Indianapolis, Ind.) weighing about 200 grams, were housed three per cage. Test compound and ibuprofen (Sigma, cat 11892) were each prepared in a mixture of 1:1:18 ethanol:cremophor EL:water. Groups of six animals were subjected to local inflammation induced by 0.1 mL CFA (Sigma-Aldrich, cat F5881, Mycobacterium tuberculosis 1 mg/ml) injected subcutaneously into the plantar surface of the left paw.
Assessment of thermal hyperalgesia: Paw withdrawal latencies (PWLs) in response to a noxious thermal stimulus (Model #37370, Ugo Basile, Cat #55370) were obtained before and 24 hours after intraplantar administration of CFA. Rats were placed in plexi-glass chambers (10×21×14 cm) on top of a glass platform (un-heated) and allowed to acclimate for approximately 15 min before testing. Each rat received 3 trials separated by approx. 3 min each and these scores were averaged to provide the final PWL. The mean and standard error of the mean (SEM) were determined for the injured paw in each treatment group. Significant reductions in PWLs (i.e., increased sensitivity to a noxious stimulus) were interpreted as the presence of thermal hyperalgesia. To avoid tissue damage, a cut-off latency of 20 seconds was employed. These behavioral assessments were carried-out under blinded conditions (i.e., compound preparation and animal dosing was performed by someone other than the person carrying out the behavioral assessments). Ibuprofen (100 mg/kg, p.o.) was used as the positive control. The mean and SEM were determined for the injured and normal paws for each treatment group. CFA produces a significant increase in sensitivity to noxious thermal stimuli as PWLs decreased from a pre-CFA baseline of 10.3±0.3 sec to a value of 4.3±0.2 sec (p≦0.05, paired t-test). […] Compound 1-10 at a dose of 3 mg/kg produced a significant increase in PWLs (p<0.01, Bonferroni post-test) that persisted for at least 4 hours post-dosing.

[2] = molecular target: human CB1 receptor (hCB1) (Homo sapiens, UniProt P21554); assay: cAMP assay (LANCE TR-FRET) in CHO-K1 cells stably expressing hCB1; assay type: cell-based
Description: (§1) The ability of compounds to act as agonists or inverse agonists at human CB2 and CB1 receptors (hCB2, hCB1, respectively) and at the rat CB2 receptor (rCB2) was determined by measuring changes in intracellular cAMP levels. Chinese Hamster Ovary (CHO-K1) cell lines stably expressing hCB2 (Genebank: X74328) or hCB1 (Genebank: X54937) were purchased from Euroscreen (Gosselies, Belgium). The rat CB2 receptor was expressed from genomic DNA (provided by M. Abood, California Pacific Medical Center) in CHO-K1 cells from expression plasmid vector, pcDNA3.1.
(§2) Receptor mediated responses were determined by measuring changes in intracellular cAMP using LANCE cAMP detection kit (cat #AD0264, Perkin Elmer, Wellesley, Mass.) based on time-resolved fluorescence resonance energy transfer (TR-FRET).
(§3) On the day of the experiment, cells were spun at low speed for 5 min at room temperature. […] Cell clumps were removed by filtering through cell strainer 40 μm (BD Falcon, Discovery Labware, Bedford, Mass.) and diluted to 2×10^5 cells/mL. Antibody supplied with the LANCE cAMP immunoassay kit was then added according to the manufacturer's instructions. An aliquot of cells was taken for un-induced controls. […] Cells were then incubated for 30 min at room temperature prior to adding to Proxiplates containing test compounds (final DMSO concentration was less than 0.5%) with a Multidrop bulk dispenser, followed by a sixty minute incubation at room temperature. The response was stopped by addition of the detection mix supplied with the LANCE kit. The reagents were allowed to equilibrate for three hours prior to reading on an Envision multi-mode detector (Perkin-Elmer). TR-FRET was measured using a 330-380 nm excitation filter, a 665 nm emission filter, dichroic mirror 380 nm and Z=1 mm. Cyclic AMP concentrations in each well were back-calculated from a cAMP standard curve run concurrently during each assay. Each plate contained 16 wells of forskolin stimulated cells and 16 wells of forskolin plus CP55,940-treated cells. […] Concentrations of cAMP were expressed as a percent of the difference of these two groups of wells.

[3] = molecular target: T1, human CB2 receptor (hCB2) (Homo sapiens, UniProt P34972); assay: cAMP assay (LANCE TR-FRET) in CHO-K1 cells stably expressing hCB2; assay type: cell-based
T1 construct: host or cells: CHO-K1
Description: as §1, §2, §3

[4] = system: acetic acid-induced writhing; assay: Inhibition of acetic acid-induced writhing in mice; assay type: in vivo, Male ICR mice; details: dose of 10 mg/kg, subcutaneous, 30 min before acetic acid; writhes over 15 min
Source text: 12: 525-562; Ramabadran and Bansinath (1986) Pharm. Res. 3: 263-270]. Intraperitoneal administration of dilute acetic acid solution causes a writhing behavior in mice. A writhe is defined as a contraction of the abdominal muscles accompanied by an extension of the forelimbs and elongation of the body. The number of writhes observed in the presence and absence of test compounds is counted to determine the analgesic activity of the compounds.
Male ICR mice, 20-40 grams in weight, were weighed and placed in individual observation chambers (usually a 4000 ml beaker) with a fine layer of rodent bedding at the bottom. To determine the activity and potency of test compounds, different doses of the compound solution or vehicle were injected subcutaneously in the back of the neck 30 minutes prior to administration of acetic acid solution. After administration of the compound or vehicle control, mice were returned to their individual observation chambers awaiting the intraperitoneal administration of acetic acid solution. Thirty minutes later, 10 ml/kg of a 0.6% (v/v) acetic acid solution was then injected into the right lower quadrant of the abdomen. Immediately after the injection, the mouse was returned to its observation chamber and the recording of the number of writhes is begun immediately. The number of writhes was counted over a 15-min period starting from the time of acetic acid injection. Raw data were analyzed using a one-way ANOVA followed by Dunnett's post-tests.
For dose-response analysis, raw data were converted to % maximum possible effect (% MPE) using the formula: % MPE=((Wc−Wv)/(0−Wv))×100, where Wc is the number of writhes in compound-treated mice and Wv is the mean number of writhes in vehicle-treated mice. The dose which elicited 50% attenuation of hypersensitivity (ED50) was determined using linear regression analysis. (Tallarida & Murray, 1987).

T1 sequence (P34972 whole entry): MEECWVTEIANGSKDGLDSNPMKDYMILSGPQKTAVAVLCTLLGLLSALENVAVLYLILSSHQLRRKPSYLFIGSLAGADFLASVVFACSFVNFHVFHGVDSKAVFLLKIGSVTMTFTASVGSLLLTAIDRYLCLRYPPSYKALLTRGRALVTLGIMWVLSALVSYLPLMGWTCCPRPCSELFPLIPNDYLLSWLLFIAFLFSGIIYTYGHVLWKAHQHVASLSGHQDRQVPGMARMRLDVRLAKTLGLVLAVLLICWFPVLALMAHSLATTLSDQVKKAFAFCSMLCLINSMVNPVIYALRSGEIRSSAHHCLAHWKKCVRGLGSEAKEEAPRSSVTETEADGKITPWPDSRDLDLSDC
Sequence of human CB1 receptor (hCB1) (P21554 whole entry): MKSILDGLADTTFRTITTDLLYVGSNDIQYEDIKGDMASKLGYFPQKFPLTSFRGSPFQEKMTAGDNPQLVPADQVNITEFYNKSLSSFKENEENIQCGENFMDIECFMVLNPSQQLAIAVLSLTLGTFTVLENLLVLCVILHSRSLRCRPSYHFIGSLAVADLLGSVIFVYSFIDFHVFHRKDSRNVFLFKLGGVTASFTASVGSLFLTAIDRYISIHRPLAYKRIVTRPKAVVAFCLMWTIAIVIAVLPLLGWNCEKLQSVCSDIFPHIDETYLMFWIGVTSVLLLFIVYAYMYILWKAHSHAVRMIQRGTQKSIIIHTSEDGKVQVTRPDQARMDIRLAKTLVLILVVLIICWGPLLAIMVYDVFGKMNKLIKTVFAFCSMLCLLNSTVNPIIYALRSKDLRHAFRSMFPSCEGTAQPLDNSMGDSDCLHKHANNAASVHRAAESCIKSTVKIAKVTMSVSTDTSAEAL

CC(C)Cc1ccc(C(C)C(=O)O)cc1 (centres unmarked) [Ibuprofen, reference compound]
Attenuation (sec.) of CFA-induced thermal hyperalgesia (mean PWL ± SEM) ([1]; 100 mg/kg, 1 hr): 7.6 ± 0.7 s | Attenuation (sec.) of CFA-induced thermal hyperalgesia (mean PWL ± SEM) ([1]; 100 mg/kg, 4 hr): 7.7 ± 0.6 s

CNC(=O)[C@@H](NC(=O)c1nc(-c2ccc(F)c(F)c2)n2c1COCCC2)C(C)(C)C [Compound 1-10, (S)-3-(3,4-difluorophenyl)-N-(3,3-dimethyl-1-(methylamino)-1-oxobutan-2-yl)-5,6,7,9-tetrahydroimidazo[5,1-c][1,4]oxazepine-1-carboxamide]
EC50 [2]: 10 to 100 nM | Persistence of significant increase in PWLs post-dosing ([1]; 3 mg/kg p.o., p<0.01, Bonferroni post-test): at least 4 hours | Attenuation (sec.) of CFA-induced thermal hyperalgesia (mean PWL ± SEM) ([1]; 3 mg/kg, 1 hr): 6.5 ± 0.5 s | Attenuation (sec.) of CFA-induced thermal hyperalgesia (mean PWL ± SEM) ([1]; 3 mg/kg, 4 hr): 6.3 ± 0.3 s | Reversal of CFA-induced thermal hyperalgesia ([1]; oral (p.o.) administration): significant reversal | EC50 [3]: 10 to 100 nM

CNC(=O)[C@@H](NC(=O)c1nc(-c2ccc(F)c(F)c2)n2c1CCOCC2)C(C)(C)C [Compound 1-9, (S)-3-(3,4-difluorophenyl)-N-(3,3-dimethyl-1-(methyl-amino)-1-oxobutan-2-yl)-5,6,8,9-tetrahydroimidazo[1,5-d][1,4]oxazepine-1-carboxamide]
EC50 [2]: 10 to 100 nM | % maximum possible effect (% MPE), writhing [4]: greater than fifty | EC50 [3]: 0.1 to 10 nM

CNC(=O)[C@@H](NC(=O)c1nc(-c2ccc(F)c(F)c2)n2c1CCCCC2)C(C)(C)C [Compound 1-2, (S)-3-(3,4-difluorophenyl)-N-(3,3-dimethyl-1-(methylamino)-1-oxobutan-2-yl)-6,7,8,9-tetrahydro-5H-imidazo[1,5-a]azepine-1-carboxamide]
EC50 [2]: 0.1 to 10 nM | % maximum possible effect (% MPE), writhing [4]: greater than fifty | EC50 [3]: 0.1 to 10 nM

CNC(=O)[C@@H](NC(=O)c1nc(-c2ccccc2)n2c1CCCCC2)C(C)(C)C [Compound 1-1, (S)—N-(3,3-dimethyl-1-(methylamino)-1-oxobutan-2-yl)-3-phenyl-6,7,8,9-tetrahydro-5H-imidazo[1,5-a]azepine-1-carboxamide]
EC50 [2]: 10 to 100 nM | % maximum possible effect (% MPE), writhing [4]: greater than fifty | EC50 [3]: 0.1 to 10 nM

CNC(=O)[C@@H](NC(=O)c1nc(-c2cc(F)ccc2F)n2c1CCCCC2)C(C)(C)C [Compound 1-3, (S)-3-(2,5-difluorophenyl)-N-(3,3-dimethyl-1-(methyl-amino)-1-oxobutan-2-yl)-6,7,8,9-tetrahydro-5H-imidazo[1,5-a]azepine-1-carboxamide]
EC50 [2]: 0.1 to 10 nM | % maximum possible effect (% MPE), writhing [4]: greater than fifty | EC50 [3]: 0.1 to 10 nM
